Test results reported in US9540356B2 (priority 2012, dated 2017).

Tests used:
[1] = tested on: HeLa cells; type: cell-based, human
[2] = tested on: HeLa cells; test: cells; type: cell-based; conditions: Homo sapiens

Row | Compound | R (Stx), protective index [1] | IC50 [2]
1 | Cc1ccc(C2Nc3ccc(F)cc3C(=O)N2c2ccccc2)s1 (stereo not drawn) [Compound 25, 6-Fluoro-2-(5-methylthiophen-2-yl)-3-phenyl-2,3-dihydroquinazolin-4(1H)-one] | 133 | –
2 | CSc1ccccc1N1C(=O)c2ccccc2NC1c1ccc(C)s1 (stereo not drawn) [Compound 31, 3-(2-(Methylthio)phenyl)-2-(5-methylthiophen-2-yl)-2,3-dihydroquinazolin-4(1H)-one] | 99 | –
3 | Cc1ccc(C2Nc3ccccc3C(=O)N2c2ccccc2Cl)s1 (stereo not drawn) [Compound 32, 3-(2-Chlorophenyl)-2-(5-methylthiophen-2-yl)-2,3-dihydroquinazolin-4(1H)-one] | 68 | –
4 | Cc1nc(-c2ccc(C3Nc4ccc(F)cc4C(=O)N3c3ccccc3)s2)cs1 (stereo not drawn) [Compound 34, 6-Fluoro-2-(5-(2-methylthiazol-4-yl)thiophen-2-yl)-3-phenyl-2,3-dihydroquinazolin-4(1H)-one] | 295 | –
5 | Cc1ccc(C2N(C)c3ccccc3C(=O)N2c2ccccc2)s1 (stereo not drawn) [Compound 35, 1-Methyl-2-(5-methylthiophen-2-yl)-3-phenyl-2,3-dihydroquinazolin-4(1H)-one] | 80 | –
6 | CN1c2ccccc2C(=O)N(c2ccccc2)C1c1ccc(Br)s1 (stereo not drawn) [Compound 43, 2-(5-Bromothiophen-2-yl)-1-methyl-3-phenyl-2,3-dihydroquinazolin-4(1H)-one] | 40 | –
7 | CN1c2ccccc2C(=O)N(c2ccccc2)C1c1ccc(Sc2ccccc2)s1 (stereo not drawn) [Compound 44, 1-Methyl-3-phenyl-2-(5-(phenylthio)thiophen-2-yl)-2,3-dihydroquinazolin-4(1H)-one] | 71 | –
8 | CN1c2ccccc2C(=O)N(c2ccccc2)C1c1ccc(-c2ccoc2)s1 (stereo not drawn) [Compound 47, 2-(5-(Furan-3-yl)thiophen-2-yl)-1-methyl-3-phenyl-2,3-dihydroquinazolin-4(1H)-one] | 49 | –
9 | Cc1ccc(C2N(C)c3ccccc3C(=O)N2c2ccccc2S(=O)(=O)c2ccccc2)s1 (stereo not drawn) [Compound 60, 1-Methyl-2-(5-methylthiophen-2-yl)-3-(2-(phenylsulfonyl)phenyl)-2,3-dihydroquinazolin-4(1H)-one] | 320 | –
10 | Cc1nc(-c2ccc(C3N(C)c4ccc(F)cc4C(=O)N3c3ccccc3)s2)cs1 (stereo not drawn) [Compound 61, 6-Fluoro-1-methyl-2-(5-(2-methylthiazol-4-yl)thiophen-2-yl)-3-phenyl-2,3-dihydroquinazolin-4(1H)-one] | 40 | –
11 | CN1c2ccccc2C(=O)N(c2ccccc2)C1c1ccc(CN=[N+]=[N-])s1 (stereo not drawn) [Compound 62, 2-(5-(Azidomethyl)thiophen-2-yl)-1-methyl-3-phenyl-2,3-dihydroquinazolin-4(1H)-one] | – | 12000 nM
12 | CN1c2ccccc2C(=O)N(c2ccccc2)C1c1ccc(-c2csc(CN=[N+]=[N-])n2)s1 (stereo not drawn) [Compound 63, 2-(5-(2-(Azidomethyl)thiazol-4-yl)thiophen-2-yl)-1-methyl-3-phenyl-2,3-dihydroquinazolin-4(1H)-one] | – | 3000 to 5000 nM
13 | CN1c2ccc(F)cc2C(=O)N(c2ccccc2)C1c1ccc(-c2csc(CN=[N+]=[N-])n2)s1 (stereo not drawn) [Compound 64, 2-(5-(2-(Azidomethyl)thiazol-4-yl)thiophen-2-yl)-6-fluoro-1-methyl-3-phenyl-2,3-dihydroquinazolin-4(1H)-one] | – | < 3000 nM
14 | Cc1nc(-c2ccc(C3N(C)c4ccccc4C(=O)N3c3ccccc3C(=O)c3ccccc3)s2)cs1 (stereo not drawn) [Compound 65, 3-(2-Benzoylphenyl)-1-methyl-2-(5-(2-methylthiazol-4-yl)thiophen-2-yl)-2,3-dihydroquinazolin-4(1H)-one] | – | 1000 to 3000 nM
15 | Cc1nc(-c2ccc(C3N(C)c4ccc(F)cc4C(=O)N3c3ccccc3C(=O)c3ccccc3)s2)cs1 (stereo not drawn) [Compound 66] | – | 1000 nM
